Data: US20240425519A1, “NOVEL SPIROCYCLIC COMPOUNDS AS KLHDC2 LIGANDS” (University of Washington, priority 2021, published 2024)
Read-outs that look alike come from different tables or passages of the source.

Biological target: KLHDC2 (Homo sapiens (Human), UniProt Q9Y2U9)
Assay: AlphaScreen competition assay for ligand binding to KLHDC2 (GST-KLHDC2 vs biotinylated 12 aa SelK degron peptide)
Details: 0.12 nM GST-KLHDC2, 1.7 nM biotinylated 12 aa SelK peptide, triplicate, read-out: KLHDC2 binding activities IC50
From the text: The following is a description of an assay for evaluating ligand binding to KLHDC2.
Amplified Luminescence Proximity Homogenous Assay (AlphaScreen) was used to monitor protein-protein interaction of two tagged components that are immobilized on beads. One component was GST-KLHDC2 (E3) and the other one was biotinylated-SelK peptide with a length of 12 amino acids (Substrate peptide). When the two components bind, they bring the Alpha beads in close proximity to each other that results in a luminescent signal.
AlphaScreen assays for determining and measuring protein-protein interactions were performed using EnSpire reader (PerkinElmer). GST-tagged KLHDC2 was attached to anti-GST AlphaScreen acceptor beads. Synthetic biotinylated 12 aa SelK degron peptide (Bio-Synthesis, Inc.) was immobilized to streptavidin-coated AlphaScreen donor beads. The donor and acceptor beads were brought into proximity by the interactions between the SelK peptide and KLHDC2. Excitation of the donor beads by a laser beam of 680 nm promotes the formation of singlet oxygen. When an acceptor bead is in close proximity, the singlet oxygen reacts with thioxene derivatives in the acceptor beads and causes the emission of 520-620 nm photons, which are detected as the binding signal. If the beads are not in close proximity to each other, the oxygen will return to its ground state and the acceptor beads will not emit light. Competition assays were performed in the presence of representative binding compounds, which were titrated at various concentrations.
The experiments were conducted with 0.12 nM of GST-KLHDC2 and 1.7 nM biotinylated 12 aa SelK peptide in the presence of 5 μg/ml donor and acceptor beads in a buffer of 25 mM HEPES, pH 7.5, 100 mM NaCl, 1 mM TCEP, 0.1% Tween-20, and 0.05 mg/ml Bovine Serum Albumin. The concentrations of the compounds used in competition assays ranged from 0.1 nM to 25 mM. The experiments were done in triplicate. IC50 values were determined using non-linear curve fitting of the dose response curves generated with Prism 4 (GraphPad).

Sequence of KLHDC2 (Q9Y2U9 whole entry): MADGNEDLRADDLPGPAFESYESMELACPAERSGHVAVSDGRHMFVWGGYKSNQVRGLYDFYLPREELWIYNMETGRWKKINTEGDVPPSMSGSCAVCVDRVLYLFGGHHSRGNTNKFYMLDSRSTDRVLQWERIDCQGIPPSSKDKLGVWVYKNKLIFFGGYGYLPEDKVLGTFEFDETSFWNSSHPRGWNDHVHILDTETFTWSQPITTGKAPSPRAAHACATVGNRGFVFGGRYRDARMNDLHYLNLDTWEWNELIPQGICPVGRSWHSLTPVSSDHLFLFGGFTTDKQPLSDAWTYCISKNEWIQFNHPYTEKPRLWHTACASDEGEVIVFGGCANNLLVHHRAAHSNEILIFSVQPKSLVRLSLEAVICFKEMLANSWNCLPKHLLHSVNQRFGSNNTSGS

IC50 (formula (II) compounds) [µM]	Structure (SMILES)	further results
116	CN1CCN(C(=O)C2(O)CCCC2)CC12CCC(=O)N(CC(=O)O)CC2 (stereo not shown) [AC1048, 2-(4-(1-hydroxycyclopen-tane-1-carbonyl)-1-meth-yl-10-oxo-1,4,9-triaza-spiro[5.6]dodecan-9-yl)-acetic acid]	–
91.7	CN1CCN(C(=O)NC2CCC2)CC12CCC(=O)N(CC(=O)O)CC2 (stereo not shown) [AC1049, 2-(4-(cyclobutylcarbam-oyl)-1-methyl-10-oxo-1,4,9-triazaspiro[5.6]-dodecan-9-yl)acetic acid]	–
65.9	CN1CCN(C(=O)C2CC(=O)N(Cc3ccccc3)C2)CC12CCC(=O)N(CC(=O)O)CC2 (stereo not shown) [AC1066, 2-(4-(1-benzyl-5-oxo-pyrrolidine-3-carbonyl)-1-methyl-10-oxo-1,4,9-triazaspiro[5.6]dodecan-9-yl)acetic acid]	–
4.6	CN1CCN(C(=O)C2CN(Cc3ccccn3)C2)CC12CCC(=O)N(CC(=O)O)CC2 (stereo not shown) [AC1069, 2-(1-methyl-10-oxo-4-(1-(pyridin-2-ylmethyl)azeti-dine-3-carbonyl)-1,4,9-triazaspiro[5.6]dodecan-9-yl)acetic acid]	–
45.4	CN1CCN(C(=O)[C@H]2CCCN2C(=O)c2ccccc2)CC12CCC(=O)N(CC(=O)O)CC2 (stereo partly drawn) [AC1071, 2-(4-(benzoyl-D-prolyl)-1-methyl-10-oxo-1,4,9-triazaspiro[5.6]dodecan-9-yl)acetic acid]	–
12.5	CC(=O)N1CCC[C@@H]1C(=O)N1CCN(C)C2(CCC(=O)N(CC(=O)O)CC2)C1 (stereo partly drawn) [AC1072, 2-(4-(acetyl-D-prolyl)-1-methyl-10-oxo-1,4,9-triazaspiro[5.6]dodecan-9-yl)acetic acid]	–

More lines, now with the values behind:

Structure (SMILES)	IC50 (formula (II) compounds) [µM]	further results
CC(C(=O)N1CCCC2(CCN(CC(=O)O)C(=O)CO2)C1)c1ccccc1 (stereo not shown) [AC890, 2-(9-oxo-2-(2-phenylpropano-yl)-7-oxa-2,10-diazaspiro[5.6]-dodecan-10-yl)acetic acid]	–	IC50 (formula (IV) compounds): 50 µM
O=C(O)CN1CCC2(CCCN(C(=O)C3CCCC3)C2)OCC1=O (stereo not shown) [AC903, 2-(2-(cyclopentanecarbonyl)-9-oxo-7-oxa-2,10-diazaspiro-[5.6]dodecan-10-yl)acetic acid]	–	IC50 (formula (IV) compounds): 40.1 µM
O=C(O)CN1CCC2(CCCN(C(=O)C3CCC3)C2)OCC1=O (stereo not shown) [AC904, 2-(2-(cyclobutanecarbonyl)-9-oxo-7-oxa-2,10-diazaspiro-[5.6]dodecan-10-yl)acetic acid]	–	IC50 (formula (IV) compounds): 51 µM
O=C(O)CN1CCC2(CCCN(c3ccnc(N4CCC(O)C4)n3)C2)OCC1=O (stereo not shown) [AC935, 2-(2-(2-(3-hydroxypyrrolidin-1-yl)pyrimidin-4-yl)-9-oxo-7-oxa-2,10-diazaspiro[5.6]-dodecan-10-yl)acetic acid]	–	IC50 (formula (IV) compounds): 47.5 µM
Cc1nccc(N2CCCC3(CCN(CC(=O)O)C(=O)CO3)C2)n1 (stereo not shown) [AC947, 2-(2-(2-methylpyrimidin-4-yl)-9-oxo-7-oxa-2,10-diazaspiro-[5.6]dodecan-10-yl)acetic acid]	–	IC50 (formula (IV) compounds): 1390 µM
C[C@H](C(=O)N1CCC[C@]2(CCN(CC(=O)O)C(=O)CO2)C1)c1ccccc1 [AC0978, 2-((S)-9-oxo-2-((S)-2-phenyl-propanoyl)-7-oxa-2,10-diaza-spiro[5.6]dodecan-10-yl)acetic acid]	–	IC50 (formula (IV) compounds): 22.1 µM
C[C@H](C(=O)N1CCC[C@@]2(CCN(CC(=O)O)C(=O)CO2)C1)c1ccccc1 [AC0979, 2-((R)-9-oxo-2-((S)-2-phenyl-propanoyl)-7-oxa-2,10-diaza-spiro[5.6]dodecan-10-yl)acetic acid]	–	IC50 (formula (IV) compounds): 63.7 µM
C[C@@H](C(=O)N1CCCC2(CCN(CC(=O)O)C(=O)CO2)C1)c1ccccc1 (stereo partly drawn) [AC1028, 2-(9-oxo-2-((R)-2-phenylpro-panoyl)-7-oxa-2,10-diaza-spiro[5.6]dodecan-10-yl)acetic acid]	–	IC50 (formula (IV) compounds): 39.6 µM
CC(=O)N1CCc2nc(N3CCN(C)C4(CCC(=O)N(CC(=O)O)CC4)C3)ncc2C1 (stereo not shown) [AC1030, 2-(4-(6-acetyl-5,6,7,8-tetra-hydropyrido[4,3-d]pyrimidin-2-yl)-1-methyl-10-oxo-1,4,9-triazaspiro[5.6]dodecan-9-yl)-acetic acid]	–	IC50 (formula (III) compounds): 445 µM
Cc1nc(N)nc(N2CCN(C)C3(CCC(=O)N(CC(=O)O)CC3)C2)c1Cl (stereo not shown) [AC1031, 2-(4-(2-amino-5-chloro-6-methylpyrimidin-4-yl)-1-methyl-10-oxo-1,4,9-triaza-spiro[5.6]dodecan-9-yl)acetic acid]	–	IC50 (formula (III) compounds): 389 µM
CN1CCN(C(=O)C2CC2c2ccccc2)CC12CCC(=O)N(CC(=O)O)CC2 (stereo not shown) [AC1032, 2-(1-methyl-10-oxo-4-(2-phenylcyclopropane-1-carbonyl)-1,4,9-triaza-spiro[5.6]dodecan-9-yl)-acetic acid]	32	–
CC(Cc1ccccc1)C(=O)N1CCN(C)C2(CCC(=O)N(CC(=O)O)CC2)C1 (stereo not shown) [AC1033, 2-(1-methyl-4-(2-methyl-3-phenylpropanoyl)-10-oxo-1,4,9-triazaspiro[5.6]-dodecan-9-yl)acetic acid]	56.4	–
CN1CCN(C(=O)C2CC(F)(F)C2)CC12CCC(=O)N(CC(=O)O)CC2 (stereo not shown) [AC1034, 2-(4-(3,3-difluorocyclo-butane-1-carbonyl)-1-methyl-10-oxo-1,4,9-triazaspiro[5.6]dodecan-9-yl)acetic acid]	295	–
CN1CCN(c2nccc(C(=O)O)n2)CC12CCC(=O)N(CC(=O)O)CC2 (stereo not shown) [AC1035, 2-(9-(carboxymethyl)-1-meth-yl-10-oxo-1,4,9-triazaspiro-[5.6]dodecan-4-yl)pyrimidine-4-carboxylic acid]	–	IC50 (formula (III) compounds): 123 µM
CN1CCN(C(=O)C2(c3ccc(F)cc3)CC2)CC12CCC(=O)N(CC(=O)O)CC2 (stereo not shown) [AC1045, 2-(4-(1-(4-fluorophenyl)-cyclopropane-1-carbon-yl)-1-methyl-10-oxo-1,4,9-triazaspiro[5.6]-dodecan-9-yl)acetic acid]	348	–
CN1CCN(C(=O)C(C)(C)Oc2ccccc2)CC12CCC(=O)N(CC(=O)O)CC2 (stereo not shown) [AC1046, 2-(1-methyl-4-(2-methyl-2-phenoxypropanoyl)-10-oxo-1,4,9-triazaspiro[5.6]-dodecan-9-yl)acetic acid]	202	–
CN1CCN(C(=O)[C@H]2C[C@@H](NC(=O)OC(C)(C)C)C2)CC12CCC(=O)N(CC(=O)O)CC2 (stereo partly drawn) [AC1047, 2-(4-((1,3-trans)-3-((tert-butoxycarbonyl)amino)-cyclobutane-1-carbonyl)-1-methyl-10-oxo-1,4,9-triazaspiro[5.6]dodecan-9-yl)acetic acid]	493	–
CN1CCN(C(=O)Nc2ccccc2)CC12CCC(=O)N(CC(=O)O)CC2 (stereo not shown) [AC1050, 2-(1-methyl-10-oxo-4-(phenylcarbamoyl)-1,4,9-triazaspiro[5.6]dodecan-9-yl)acetic acid]	33.6	–
CN1CCN(C(=O)NCc2ccccc2)CC12CCC(=O)N(CC(=O)O)CC2 (stereo not shown) [AC1051, 2-(4-(benzylcarbamoyl)-1-methyl-10-oxo-1,4,9-triazaspiro[5.6]dodecan-9-yl)acetic acid]	45.9	–
CN1CCN(C(=O)C2CC2)CC12CCC(=O)N(CC(=O)O)CC2 (stereo not shown) [AC1052, 2-(4-(cyclopropanecar-bonyl)-1-methyl-10-oxo-1,4,9-triazaspiro[5.6]-dodecan-9-yl)acetic acid]	100	–
CC(C(=O)N1CCN(C)C2(CCC(=O)N(CC(=O)O)CC2)C1)c1ccc(O)cc1 (stereo not shown) [AC1062, 2-(4-(2-(4-hydroxyphen-yl)propanoyl)-1-methyl-10-oxo-1,4,9-triazaspiro-[5.6]dodecan-9-yl)acetic acid]	19.8	–
COC(C)(C(=O)N1CCN(C)C2(CCC(=O)N(CC(=O)O)CC2)C1)c1ccccc1 (stereo not shown) [AC1063, 2-(4-(2-methoxy-2-phen-ylpropanoyl)-1-methyl-10-oxo-1,4,9-triazaspiro-[5.6]dodecan-9-yl)acetic acid]	131	–
CN1CCN(C(=O)c2cnn(-c3ccccc3)c2)CC12CCC(=O)N(CC(=O)O)CC2 (stereo not shown) [AC1064, 2-(1-methyl-10-oxo-4-(1-phenyl-1H-pyrazole-4-carbonyl)-1,4,9-triaza-spiro[5.6]dodecan-9-yl)-acetic acid]	148	–
CN1CCN(C(=O)[C@@H]2CCN2C(=O)OC(C)(C)C)CC12CCC(=O)N(CC(=O)O)CC2 (stereo partly drawn) [AC1065, 2-(4-((S)-1-(tert-butoxy-carbonyl)azetidine-2-carbonyl)-1-methyl-10-oxo-1,4,9-triazaspiro[5.6]-dodecan-9-yl)acetic acid]	496	–
CC(=O)N1CCC(C(=O)N2CCN(C)C3(CCC(=O)N(CC(=O)O)CC3)C2)CC1 (stereo not shown) [AC1068, 2-(4-(1-acetylpiperidine-4-carbonyl)-1-methyl-10-oxo-1,4,9-triazaspiro-[5.6]dodecan-9-yl)acetic acid]	191	–
